Source: patent publication US7504384B2 (priority 2000, dated 2009)
Like-named read-outs stand apart in the source and are kept apart here.

Assays:
[1] = test system: HIV-1IIIB-infected H9 cells and uninfected MT-2 cells; assay: Inhibition of fusion between HIV-infected and uninfected cells; assay type: cell-based; details: for IC50 (mean ± SD), inhibition of fusion / IC90 (mean ± SD), inhibition of fusion: H9/HIV-1 IIIB + MT-2 cells, 2 h; for IC50 / IC90: Table 1.4
Protocol: In this assay, HIV-1IIIB-infected H9 cells were labeled with BCECF (2′,7′-bis(2-carboxyethyl)-5-6-carboxyfluorescein-acetoxymethyl-ester, Molecular Probes, Eugene, Oreg.) according to the manufacturer's instructions. BCECF-labeled H9/HIV-1 IIIB cells (10^4) were mixed with 1×10^5 uninfected MT-2 cells. After incubation in a 96-well plate at 37° C. for 2 h, the fused and unfused labeled cells were counted under an inverted fluorescence microscope at ×160 magnification. At least 200 BCECF-labeled cells were counted and the proportion of fused cells was determined Fusion tests were carried out in the presence and absence of graded quantities of the tested Lipid-conjugates. […] The IC50 represents the concentration of a drug that is required to achieve 50% inhibition. Similarly, the IC90 represents the concentration of a drug that is required to achieve 90% inhibition.

HIV-1IIIB = assay: Inhibition of p24 production (HIV-1IIIB infection of MT-2 cells); assay type: cell-based; details: fourth day, p24 ELISA
Protocol: Experiment 1.2: Inhibition of HIV-1IIIB Infection
After 1 h, half of the culture medium was changed and replaced by fresh medium (with/without Lipid-conjugate) and after 24 h, the second half of the culture medium was changed and replaced by fresh medium (with/without Lipid-conjugate). On the fourth day after incubation at 37° C., 100 μl of culture supernatants were collected from each well and an equal volume of fresh medium was added to the wells. The collected supernatants were mixed with an equal volume of 5% (v/v) Triton X-100 and assayed for p24 antigen using an ELISA kit from Coulter Immunology (Hialeah, Fla.).

[2] = test system: cysteinyl leukotrienes (LTC4, LTD4 and LTE4); assay: Cysteinyl leukotriene level in BAL of OVA-induced asthmatic rats
mice [3] = assay: Long-term (30 weeks) toxicity test; assay type: in vivo
Protocol: For the long-term toxicity test a group of 6 mice received an i.p injection of 100 mg Lipid-conjugate (Compound XXII)/kg body weight 3 times a week for 30 weeks (e.g., 180 mg total to a mouse weighing 20 g). Toxicity was evaluated as for Table 8.1. The results of the long-term toxicity test are depicted in Table 8.2.

HIV = HIV infectivity of supernatant from whole blood mixed with HIV, on HT4-1022 cells; assay type: cell-based; details: whole blood mixed with HIV and Lipid-conjugate (50 μM Compound XXIV, 30 μM Compound XXII) for 30 min; FIG. 1.1
From the text: The cells were then spun and the supernatant was examined for HIV infectivity on HT4-1022 cells as described by Margolis-Nunno et al. (Transfusion, 36, 743-750, 1996).

mice [4] = assay: Acute (7 day) toxicity test; assay type: in vivo; details: for Body weight (g) Final / Hematocrit % / RBC × 10^6 / WBC × 10^3: 7 day; for Body weight (g) Final / Hematocrit % / RBC × 10^6 / WBC × 10^3 / Body weight (g) Start: mean ± SEM; for toxicity: mortality rate, body weight, blood count, hematocrit, internal organ histology: mice, one week after a single i.p. dose of 1000, 500 or 200 mg/kg, versus untreated mice
Protocol: […] Mortality rate, body weight, blood count (red and white cells), hematocrit, and internal organ histology after sacrifice were assessed. These parameters were compared in Lipid-conjugate-treated and in control, untreated mice.

[5] = molecular target: V3 (third variable) domain of the HIV-1 envelope glycoprotein gp120; assay: V3 antibody binding (ELISA); parameters: species or system human immunodeficiency virus type 1 (HIV-1); details: standard ELISA
Protocol: V3 antibody binding is an assay that uses an antibody that binds to the V3 (third variable) domain of the human immunodeficiency virus type 1 (HIV-1) envelope glycoprotein gp120. Anti-V3 domain antibodies may provide an indicator of the presence and amount of HIV. V3 antibody binding was determined by standard ELISA.

[6] = test system: Madin Darby canine kidney (MDCK) cells; assay: Cytotoxicity assay, visual observation, uninfected cells; assay type: cell-based; details: high concentration
Protocol: Uninfected cells were treated with each concentration of test compound in duplicate and run in parallel with the infected, treated wells in the CPE inhibition tests described above. The toxicity control cells (uninfected and treated) were examined under a light microscope for changes in cell appearance compared to control cells (uninfected, untreated) on the same plate as described above. The 50% cell inhibitory (cytotoxic) concentrations (IC50) were calculated by regression analysis.

[7] = test system: Respiratory syncytial virus; assay type: cell-based, strain A2
[8] = test system: Madin Darby canine kidney (MDCK) cells; assay type: cell-based; details: high concentration, Neutral Red Uptake Assay
Punta Toro virus [9] = assay type: cell-based, strain Adames
[10] = test system: Influenza A (H3N2 strain) virus; assay type: cell-based, Influenza type A, A/Panama/2007/99 (H3N2); details: high concentration, Neutral Red Uptake Assay
Punta Toro virus [11] = assay type: cell-based, strain Adames; remark: listed apart in the source
[12] = 100 mg/kg i.p. 3 times/week for 30 weeks
[13] = listed as Influenza A (H1N1 strain)
[14] = listed as Influenza A (H3N2 strain)

Substance: dipalmitoyl-PE conjugated to HA [Compound XXII]
- IC50 (mean ± SD), inhibition of fusion [1]: >500 µg/mL
- IC90 (mean ± SD), inhibition of fusion [1]: >500 µg/mL
- IC50 [1]: > 7500 nM
- IC90 [1]: > 7500 nM
- IC50 (HIV-1IIIB): 3110 nM
- IC50 (mean ± SD), inhibition of p24 production (HIV-1IIIB): 207.0 ± 18.0 µg/mL
- IC90 (HIV-1IIIB): 5.76 µM
- IC90 (mean ± SD), inhibition of p24 production (HIV-1IIIB): 384.3 ± 79.3 µg/mL
- CysLT levels in BAL ([2]; SC administration, compared with Naive rats): no significant difference
- CysLT levels in BAL ([2]; aerosol inhalation, compared with Naïve rats, P<0.01 vs Asthmatic): no significant difference
- mortality (mice [3]; 100 mg/kg i.p. 3 times a week for 30 weeks): no incidents of mortality
- changes in body weight, red or white blood cell count, or hematocrit (mice [3]; 100 mg/kg i.p. 3 times a week for 30 weeks, compared to control, untreated mice): no significant changes
- Body weight (g) Final (mice [3]; [12]): 39.0 ± 2.7 g
- Hematocrit % (mice [3]; [12]): 43.4 ± 4.9%
- RBC × 10^6 (mice [3]; [12]): 11.7 ± 0.7 × 10^6
- WBC × 10^3 (mice [3]; [12]): 8.1 ± 15 × 10^3
- HIV infectivity (HIV): prevent HIV infection of cells
- Body weight (g) Final (mice [4]; 250 mg/kg body weight): 23.1 ± 0.6 g
- Hematocrit % (mice [4]; 250 mg/kg body weight): 43.3 ± 0.7%
- RBC × 10^6 (mice [4]; 250 mg/kg body weight): 11.4 ± 0.1 × 10^6
- WBC × 10^3 (mice [4]; 250 mg/kg body weight): 7.7 ± 0.2 × 10^3
- Body weight (g) Start (mice [4]; 250 mg/kg body weight): 22.1 ± 0.4 g
- Body weight (g) Final (mice [4]; 500 mg/kg body weight): 22.3 ± 0.4 g
- Hematocrit % (mice [4]; 500 mg/kg body weight): 44.7 ± 2.3%
- RBC × 10^6 (mice [4]; 500 mg/kg body weight): 11.5 ± 0.3 × 10^6
- WBC × 10^3 (mice [4]; 500 mg/kg body weight): 8.1 ± 1.3 × 10^3
- Body weight (g) Start (mice [4]; 500 mg/kg body weight): 21.4 ± 0.3 g
- Body weight (g) Final (mice [4]; 1000 mg/kg body weight): 22.1 ± 0.2 g
- Hematocrit % (mice [4]; 1000 mg/kg body weight): 40.3 ± 0.7%
- RBC × 10^6 (mice [4]; 1000 mg/kg body weight): 10.9 ± 0.4 × 10^6
- WBC × 10^3 (mice [4]; 1000 mg/kg body weight): 7.4 ± 0.6 × 10^3
- Body weight (g) Start (mice [4]; 1000 mg/kg body weight): 21.7 ± 0.2 g
- toxicity: mortality rate, body weight, blood count, hematocrit, internal organ histology (mice [4]): did not alter the parameters
- IC50 [5]: 45 µM

Substance: dipalmitoyl-phosphatidyl-ethanolamine conjugated to heparin [Compound XXIV]
- IC50 (mean ± SD), inhibition of fusion [1]: 7.9 ± 1.3 µg/mL
- IC90 (mean ± SD), inhibition of fusion [1]: 15.3 ± 3.9 µg/mL
- IC50 [1]: 550 nM
- IC90 [1]: 1070 nM
- IC50 (HIV-1IIIB): 700 nM
- IC50 (mean ± SD), inhibition of p24 production (HIV-1IIIB): 10.0 ± 2.3 µg/mL
- IC90 (HIV-1IIIB): 1.35 µM
- IC90 (mean ± SD), inhibition of p24 production (HIV-1IIIB): 19.3 ± 4.5 µg/mL
- IC50 [6, 13]: 35 µg/mL
- IC50 [6, 14]: 100 µg/mL
- IC50 ([6]; listed as Influenza B): 90 µg/mL
- EC50 ([7]; low concentrations, Neutral Red Uptake Assay, Respiratory Syncytial A): >100 µg/mL
- activity vs RSV by neutral red assay ([7]; lower range of doses): not active
- IC50 [8, 13]: 64 µg/mL
- IC50 [8, 14]: 110 µg/mL
- IC50 ([8]; listed as Influenza B): 220 µg/mL
- HIV infectivity (HIV): prevent HIV infection of cells
- toxicity: mortality rate, body weight, blood count, hematocrit, internal organ histology (mice [4]): did not alter the parameters
- SI (IC50/EC50) (Punta Toro virus [9]): 0
- EC50 (Punta Toro virus [9]; low concentrations, Neutral Red Uptake Assay, Punta Toro A): >100 µg/mL
- EC50 [10]: 900 µg/mL
- IC50 [5]: 140 µM
- SI (IC50/EC50) (Punta Toro virus [11]): 0
- EC50 (Punta Toro virus [11]; low concentrations, Visual Observation Assay, Punta Toro A): >100 µg/mL
- virus inhibitory effect against Punta Toro virus (Punta Toro virus [11]; lower range of doses, at the concentrations tested): did not display a virus inhibitory effect
